{
  "source": "paper PMC8148468",
  "about": "“Shikimic acid protects skin cells from UV-induced senescence through activation of the NAD+-dependent deacetylase SIRT1” (Aging (Albany NY), 2021)",
  "key": {"[1]": {"system": "H3K9ac (the target of SIRT1, SIRT2 and SIRT6)", "assay": "Sirtuin activity assay in HDF: H3K9ac levels (Western blot)", "type": "cell-based, human", "conditions": "UV conditions, -/+25mM SA -/+1μM EX-527"}, "[2]": {"molecular_target": "T1, FLAG-SIRT1 purified from HEK293 cells (Homo sapiens, UniProt Q96EB6)", "T1 construct": "FLAG; made in house; host or cells: HEK293 (HEK293F)", "T1 sequence (Q96EB6 1-747)": "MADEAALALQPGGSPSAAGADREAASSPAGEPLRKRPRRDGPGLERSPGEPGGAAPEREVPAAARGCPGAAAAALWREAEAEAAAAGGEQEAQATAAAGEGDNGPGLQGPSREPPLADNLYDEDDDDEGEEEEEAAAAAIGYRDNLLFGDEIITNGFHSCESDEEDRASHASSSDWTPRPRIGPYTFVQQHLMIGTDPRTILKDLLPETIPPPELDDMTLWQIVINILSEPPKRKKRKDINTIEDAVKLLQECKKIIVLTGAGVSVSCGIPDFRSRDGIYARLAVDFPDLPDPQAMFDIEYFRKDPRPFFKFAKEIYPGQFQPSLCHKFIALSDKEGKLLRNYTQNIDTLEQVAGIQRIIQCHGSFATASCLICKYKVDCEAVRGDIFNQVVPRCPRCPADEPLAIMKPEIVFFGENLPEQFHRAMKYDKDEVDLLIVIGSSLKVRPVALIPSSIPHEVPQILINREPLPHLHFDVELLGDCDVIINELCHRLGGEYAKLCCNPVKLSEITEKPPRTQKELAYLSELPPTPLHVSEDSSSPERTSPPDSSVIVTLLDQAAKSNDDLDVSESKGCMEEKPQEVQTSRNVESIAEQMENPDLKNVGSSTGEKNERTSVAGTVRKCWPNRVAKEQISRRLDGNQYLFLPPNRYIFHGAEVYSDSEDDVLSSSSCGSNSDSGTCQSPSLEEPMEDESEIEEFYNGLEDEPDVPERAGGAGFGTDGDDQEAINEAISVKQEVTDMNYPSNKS", "assay": "In vitro SIRT1 deacetylation assay", "type": "biochemical", "conditions": "-/+ NAD+, Shikimic acid 1 μM-10mM", "procedure": "Figure 3 (A) Schematic representation of the protocol for senescence induction using UVB irradiation and study of EX527 involvement in the effect of Shikimic acid. Cells were treated with or without shikimic acid -/+ EX-527 from day 1 until day 7 after seeding, irradiated with UVB on days 2 and 5 and harvested for analysis on day 7. (B) Phase-contrast (left column) and bright field (right column) microscope images of β-Gal staining showing non-irradiated cells non-treated and treated with shikimic acid (10, 25 and 50 mM), UVB-irradiated cells non-treated and treated with shikimic acid (10, 25 and 50 mM), shikimic acid (10, 25 and 50 mM) + EX-527 1 μM and EX-527 1 μM. (C) Percentage of SA-β-Gal positive cells and (D) relative HAS2 mRNA levels in non-irradiated cells non-treated and treated with Shikimic acid (10, 25 and 50 mM), UVB-irradiated cells non-treated and treated with Shikimic acid (10, 25 and 50 mM), Shikimic acid (10, 25 and 50 mM) + EX-527 1 μM and EX-527 1 μM. (E) Percentage of SA-β-Gal as in (C) of SA 25 or 50mM upon siRNA mediated downregulation of SIRT1, SIRT2 or SIRT6. siScr: scramble siRNA. […] SIRT1 activity was then evaluated by analyzing acetylation of H3K9, H4K16 and p53K382 by Western blot. […]\nThe in vitro SIRT1 deacetylation assay was performed as previously described. […] Deacetylation was monitored by quantification of H3K9ac/H3, H4K16ac/H4 and p53K382ac/p53 levels."}},
  "data": [
    {"smiles": "O=C(O)C1=C[C@@H](O)[C@@H](O)[C@H](O)C1", "note": "[Shikimic acid]", "values": [
      {"measurement": "H3K9ac/H3 levels under UV-induced senescence", "setting": "[1]", "result": "induced increased deacetylation of H3K9ac and H4K16ac"},
      {"measurement": "SIRT1 deacetylation activity in vitro (H3K9ac, H4K16ac, p53K382ac)", "setting": "[2]", "result": "did not alter SIRT1 deacetylation activity in vitro"}
    ]}
  ]
}
